Tests used:
B^0AT1 [1] = biological target: T1, B^0AT1 (Mus musculus, UniProt Q9D687); test: Na+-dependent leucine uptake in inverted sections of mouse intestine; conditions: 50 μM inhibitor, 150 μM [14C]leucine
T1 construct: from tissue; host or cells: small intestine of C57/BL6J female mice, inverted 1 cm sections
Description: For uptake assays with inverted sections of mouse small intestine, 5–7 months old C57/BL6J female mice were sacrificed by cervical dislocation (Animal ethics protocol A2016/41, Australian National University). The small intestine was removed and the intestinal lumen was rinsed with ice-cold 0.9% NaCl. Subsequently, the small intestine was inverted on a metal rod to expose the mucosa. The inverted intestine was then cut into 1 cm pieces and fitted onto enzyme spatulas, which were immersed in HBSS pH 7.5 supplemented with 1 mM glutamine and protease inhibitor (Roche Complete). After washing twice in modified HBSS pH 7.5 (containing 10% NaCl + 90% NMDG-Cl for Na^+-dependent uptake and 100% NMDG-Cl for Na^+-independent uptake, both buffers supplemented with 1 mM glutamine) to remove residual compounds, the segments were pre-incubated in the same buffer in the presence of 50 µM of transport inhibitor and protease inhibitors for 15 min. At the end of the pre-incubation, the segments were transferred for 30 s into uptake buffer at 37°C (HBSS pH 7.5 supplemented with 150 μM [^14C]leucine and 50 µM transport inhibitor). For Na^+-dependent uptake regular HBSS was used, for Na^+-independent uptake NaCl was replaced by NMDG-Cl. Subsequently, the segments were rinsed three times in ice-cold HBSS pH 7.5 and lysed in 400 µl of 10% SDS. After 2–3 h, the lysed tissues were analyzed by scintillation counting.
To test whether the novel B^0AT1 inhibitors block the transporter in a more physiological environment, we studied leucine uptake in inverted sections of mouse intestine ( Figure 6C ). We established previously that Na^+-dependent leucine uptake (blue bars) in this system is mediated by B^0AT1 ([Broer et al., 2011]). In addition leucine uptake has a Na^+-independent transport component (salmon coloured bars), which is most likely mediated by rbat/b^0,+AT. Because of variability between animals, all data were normalized to uninhibited controls from the same animal.

B^0AT1 [2] = biological target: T2, B^0AT1 (Homo sapiens, UniProt Q695T7); test: FLIPR assay with inhibitors alone in the absence of substrate (substrate test) in CHO-BC cells; assay type: cell-based; conditions: 30 μM, baseline 100 RFU
T2 construct: expressed in transfected cells
T2 sequence (Q695T7 1-634): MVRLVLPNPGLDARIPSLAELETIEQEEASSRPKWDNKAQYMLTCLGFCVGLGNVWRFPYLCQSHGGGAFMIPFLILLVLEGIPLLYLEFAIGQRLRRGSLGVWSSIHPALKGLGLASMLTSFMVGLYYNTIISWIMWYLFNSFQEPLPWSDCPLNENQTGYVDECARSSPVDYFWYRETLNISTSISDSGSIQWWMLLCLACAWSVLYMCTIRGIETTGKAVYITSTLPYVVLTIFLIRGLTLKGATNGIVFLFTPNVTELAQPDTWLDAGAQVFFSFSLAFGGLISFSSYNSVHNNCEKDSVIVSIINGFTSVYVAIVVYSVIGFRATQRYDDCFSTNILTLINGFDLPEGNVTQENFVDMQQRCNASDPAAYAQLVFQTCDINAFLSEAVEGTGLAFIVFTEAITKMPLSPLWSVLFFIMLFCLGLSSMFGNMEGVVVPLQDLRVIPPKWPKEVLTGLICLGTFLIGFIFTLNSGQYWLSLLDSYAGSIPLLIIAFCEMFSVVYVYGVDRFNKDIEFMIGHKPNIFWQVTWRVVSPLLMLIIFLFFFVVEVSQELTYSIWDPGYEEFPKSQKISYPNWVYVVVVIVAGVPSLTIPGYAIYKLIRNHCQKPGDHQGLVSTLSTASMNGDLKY
T2 sequence (Q9HBJ8 15-222 partner): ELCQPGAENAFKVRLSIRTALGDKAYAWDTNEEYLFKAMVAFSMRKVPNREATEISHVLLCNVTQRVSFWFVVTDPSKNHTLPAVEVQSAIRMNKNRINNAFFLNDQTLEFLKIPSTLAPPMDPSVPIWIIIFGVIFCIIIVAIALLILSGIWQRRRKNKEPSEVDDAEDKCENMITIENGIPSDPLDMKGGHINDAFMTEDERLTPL
Method: Membrane depolarisation induced by amino acid transport was monitored using a FLIPR® kit (Molecular Devices, R8042 BLUE DYE). Before the assay, CHO-BC cells were seeded out at a density of 60,000 cells/well and maintained in a flat transparent bottom 96-well plate (Corning) overnight. After washing three times with Hank’s balanced salt solution (136.6 mM NaCl, 5.4 mM KCl, 0.44 mM KH2PO4, 2.7mM Na2HPO4, 1.26mM CaCl2, 0.5mM MgCl2, 0.4 mM MgSO4, 10mM HEPES, pH 7.5, supplemented with 5 mM glucose, abbreviated HBSS + G), cells in each well were incubated for 30 min at room temperature in 50 µl of HBSS pH 7.5 containing 5 mM glucose and compounds as indicated, together with 50 µl of dye-loading buffer provided with the kit. […] Fluorescence was detected at room temperature using a PerkinElmer multimode Plate Reader, with an excitation wavelength of 530 nm and emission wavelength of 565 nm.
Figure 6 Specificity and efficacy of B^0AT1 inhibitors. […] Although structurally unrelated to the substrates of the transporter, compounds E4, E18, and CB3 are highly specific.

T1 sequence (Q9D687 whole entry): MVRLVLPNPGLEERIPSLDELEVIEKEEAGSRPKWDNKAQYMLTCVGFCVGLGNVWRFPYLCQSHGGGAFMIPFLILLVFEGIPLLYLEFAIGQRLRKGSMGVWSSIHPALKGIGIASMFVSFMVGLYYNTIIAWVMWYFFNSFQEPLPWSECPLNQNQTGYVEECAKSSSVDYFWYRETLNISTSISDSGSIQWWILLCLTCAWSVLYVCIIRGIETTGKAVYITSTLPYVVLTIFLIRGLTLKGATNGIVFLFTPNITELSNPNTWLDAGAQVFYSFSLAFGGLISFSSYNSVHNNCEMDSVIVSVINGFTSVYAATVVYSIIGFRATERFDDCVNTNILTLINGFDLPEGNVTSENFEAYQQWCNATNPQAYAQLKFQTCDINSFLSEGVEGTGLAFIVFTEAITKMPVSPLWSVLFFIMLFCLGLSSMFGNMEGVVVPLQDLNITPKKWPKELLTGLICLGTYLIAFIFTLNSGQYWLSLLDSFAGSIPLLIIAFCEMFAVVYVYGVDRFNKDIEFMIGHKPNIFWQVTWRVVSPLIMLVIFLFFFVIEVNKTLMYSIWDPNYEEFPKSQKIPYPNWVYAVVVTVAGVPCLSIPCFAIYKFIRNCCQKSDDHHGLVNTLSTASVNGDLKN
T1 sequence (Q8R0I0 18-805 partner): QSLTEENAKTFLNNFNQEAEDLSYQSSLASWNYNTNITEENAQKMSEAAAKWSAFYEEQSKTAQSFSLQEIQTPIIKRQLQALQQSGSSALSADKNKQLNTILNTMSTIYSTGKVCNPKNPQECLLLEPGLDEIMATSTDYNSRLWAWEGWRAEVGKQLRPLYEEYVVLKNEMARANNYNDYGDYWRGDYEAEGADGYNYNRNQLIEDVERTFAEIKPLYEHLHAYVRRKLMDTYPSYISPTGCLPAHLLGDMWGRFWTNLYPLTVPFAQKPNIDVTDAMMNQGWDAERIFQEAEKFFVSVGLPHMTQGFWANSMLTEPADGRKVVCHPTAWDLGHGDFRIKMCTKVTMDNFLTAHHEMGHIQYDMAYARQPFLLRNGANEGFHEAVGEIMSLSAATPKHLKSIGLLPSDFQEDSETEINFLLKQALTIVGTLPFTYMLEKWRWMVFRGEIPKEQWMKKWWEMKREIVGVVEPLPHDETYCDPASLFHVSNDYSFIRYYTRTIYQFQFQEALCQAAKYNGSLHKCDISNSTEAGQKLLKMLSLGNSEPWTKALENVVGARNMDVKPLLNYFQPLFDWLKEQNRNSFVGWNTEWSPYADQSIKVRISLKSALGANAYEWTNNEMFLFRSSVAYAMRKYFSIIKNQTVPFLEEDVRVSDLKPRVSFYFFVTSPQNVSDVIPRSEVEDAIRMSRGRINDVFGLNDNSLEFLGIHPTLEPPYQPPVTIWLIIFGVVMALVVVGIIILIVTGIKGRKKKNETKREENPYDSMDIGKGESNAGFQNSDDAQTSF

Row | Structure (SMILES) | Inhibition of Na+-dependent leucine uptake (B^0AT1) ex vivo (B^0AT1 [1]) | Fluorescence signal when tested alone (no substrate) (B^0AT1 [2])
1 | Cc1cc(C(=O)Nc2ccc(Cl)cc2C(F)(F)F)no1 [CB3] | more potent | did not increase fluorescence above the baseline
2 | Cc1cc(OCC(=O)NC(C)C)cc(C)c1Cl [Compound E4] | limited capacity to inhibit B^0AT1 | did not increase fluorescence above the baseline
3 | COc1ccccc1Nc1nc2ccccc2s1 [Compound E18] | more potent | did not increase fluorescence above the baseline
